Some test systems named below: SF-539 CNS; SW-620 colon; M14 melanoma; UACC-257 melanoma; HCT-116 colon; U251 CNS; HOP-62 NSCLC; MCF7 breast; BT-549 breast; RXF 393 renal; SF-295 CNS; UO-31 renal; A549 NSCLC; EKVX NSCLC; LOX IMVI melanoma; K-562 leukemia; OVCAR-8 ovarian; SK-MEL-5 melanoma; KM12 colon.
Assay in all cases: growth of human tumour cells (NCI), 48 h

The structures appear in SMILES notation.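 Step 1: Grow cells in 96-well plates. Step 2: Expose to compound for 48 hours at 5 concentrations. Step 3: Interpolate endpoints linearly; if unreached, use highest concentration. GI50 is the concentration that inhibits growth by half. The concentration for full growth arrest is given as TGI.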

As for `NCCSC1(O)C(=O)c2ccccc2-c2ccccc21` (stereo not drawn), the TGI in the test with SF-539 CNS came out at 2.67 µM; with SW-620 colon, 3.16 µM; with M14 melanoma it was 4.25 µM; in the test on UACC-257 melanoma, 2.09 µM; in the test with HCT-116 colon it was 1.04 µM; in the test on U251 CNS, 2.16 µM. Further, the TGI with HOP-62 NSCLC was 3.22 µM; in the test on MCF7 breast it was 3.64 µM; with BT-549 breast, 2.9 µM; in the test with RXF 393 renal it was 3.01 µM; in the test on SF-295 CNS, 2.28 µM; in the test with UO-31 renal, 2.87 µM. Further, the TGI with A549 NSCLC stood at 2.91 µM; with EKVX NSCLC it was 3.11 µM; in the test with LOX IMVI melanoma it was 0.717 µM; with K-562 leukemia it was 2.43 µM; in the test on OVCAR-8 ovarian, 1.16 µM; with SK-MEL-5 melanoma, 1.34 µM. This molecule also gave a TGI in the test on KM12 colon of 3.33 µM. The GI50 in the test with BT-549 breast was 1.56 µM.

For the molecule `CCCCN(CCCC)C1(c2cc3ccccc3s2)CCCCC1`, the TGI with SF-539 CNS was found to be 34.9 µM; in the test on SW-620 colon, 33.8 µM; in the test with M14 melanoma, 30.6 µM; in the test on UACC-257 melanoma it was 34 µM; with HCT-116 colon it was 23.7 µM; with U251 CNS it was 31.4 µM. Further, the TGI in the test with HOP-62 NSCLC worked out at 29.2 µM; in the test on MCF7 breast, 32.1 µM; in the test with BT-549 breast, 35.1 µM; in the test on RXF 393 renal it was 30.8 µM; with SF-295 CNS, 26.8 µM; in the test on UO-31 renal it was 32.9 µM. For the same molecule, the TGI worked out at 34 µM with A549 NSCLC; 36.6 µM with EKVX NSCLC; 28.3 µM in the test with LOX IMVI melanoma; 32.9 µM with K-562 leukemia; 34.4 µM in the test with OVCAR-8 ovarian; 40.7 µM with SK-MEL-5 melanoma. Besides, the TGI with KM12 colon is 30.4 µM.

Consider `Cc1cc(C)c(S(=O)(=O)N(CCCCCCN)OCCCON(CCCCCCN)S(=O)(=O)c2c(C)cc(C)cc2C)c(C)c1`, for which the TGI in the test with SF-539 CNS stood at 3.98 µM; in the test with M14 melanoma, 3.03 µM; in the test with UACC-257 melanoma it was 3.27 µM; in the test with HCT-116 colon, 3.08 µM; in the test with U251 CNS, 3.15 µM; with HOP-62 NSCLC, 3.6 µM. Further, the TGI amounted to 3.66 µM in the test with MCF7 breast; 3.26 µM in the test with BT-549 breast; 3.18 µM with RXF 393 renal; 3.41 µM with SF-295 CNS; 4.04 µM in the test with UO-31 renal; 3.24 µM in the test with A549 NSCLC. In addition, the TGI in the test with EKVX NSCLC is 3.19 µM; with LOX IMVI melanoma, 3.19 µM; with K-562 leukemia it was over 100 µM; with OVCAR-8 ovarian it was 3.34 µM; in the test with KM12 colon, 4.35 µM.

As to `[N-]=[N+]=NCC(=O)c1c[nH]c(=O)[nH]c1=O`, the TGI in the test with SF-539 CNS, in the test with SW-620 colon, with M14 melanoma, with UACC-257 melanoma, with HCT-116 colon and in the test on U251 CNS was over 100 µM throughout. Further, the TGI in the test with HOP-62 NSCLC, in the test with MCF7 breast, in the test on BT-549 breast, in the test with RXF 393 renal, with SF-295 CNS and in the test on UO-31 renal was over 100 µM each time. Moreover, the TGI in the test with A549 NSCLC, in the test with EKVX NSCLC, with LOX IMVI melanoma, in the test on K-562 leukemia, in the test on OVCAR-8 ovarian and in the test with SK-MEL-5 melanoma was over 100 µM in each case. Moreover, the TGI in the test on KM12 colon is over 100 µM.

Regarding `C=C1CC2(C)CCC(OC(=O)C3(C)OC3C)C(C)(OC(C)=O)C2CC1=C(C)C` (stereo not drawn), the TGI in the test on SF-539 CNS, in the test with SW-620 colon, in the test on M14 melanoma, in the test on UACC-257 melanoma, with HCT-116 colon and with U251 CNS was over 100 µM each time. The TGI in the test on HOP-62 NSCLC, with MCF7 breast, in the test on BT-549 breast, in the test with RXF 393 renal, in the test on SF-295 CNS and in the test on UO-31 renal was over 100 µM each time. The TGI with A549 NSCLC, in the test on EKVX NSCLC, in the test on LOX IMVI melanoma, in the test on K-562 leukemia, in the test on OVCAR-8 ovarian and in the test with SK-MEL-5 melanoma was over 100 µM throughout. In addition, the TGI in the test with KM12 colon was over 100 µM.

Consider `COc1cc2c(OC)c3cc(C)oc(=O)c3c(O)c2c(O)c1-c1c(OC)cc2c(OC)c3cc(C)oc(=O)c3c(O)c2c1O`, for which the TGI in the test with SF-539 CNS is 35.7 µM; with SW-620 colon, over 100 µM; in the test on M14 melanoma, 35.4 µM; with UACC-257 melanoma, 44.1 µM; in the test with HCT-116 colon it was 28 µM; with U251 CNS it was 31.7 µM. Besides, the TGI came to 30.1 µM with HOP-62 NSCLC; 51.1 µM with MCF7 breast; 68.5 µM in the test on BT-549 breast; 35.9 µM in the test with RXF 393 renal; 39.7 µM in the test with SF-295 CNS; 35.9 µM in the test on UO-31 renal. The TGI was found to be 38.9 µM in the test with A549 NSCLC; 62.3 µM in the test with EKVX NSCLC; 43.8 µM in the test on LOX IMVI melanoma; 34.3 µM with K-562 leukemia; 30 µM with OVCAR-8 ovarian; 35.8 µM in the test with SK-MEL-5 melanoma. The TGI with KM12 colon came to 40.4 µM.
